Test results published in patent US9738642B2, “Triazolopyridine ether derivatives and their use in neurological and pyschiatric disorders” (BRISTOL-MYERS SQUIBB COMPANY, priority 2013, dated 2017).
Structures can show the parent of a compound that is named as a salt.

What follows are compounds tested against T1, human mGluR2 (Homo sapiens, UniProt Q14416) (assay: mGluR2 cAMP assay). Settings: EC50 (nM), activity in mGluR2 cAMP assay, clonally expressed human mGluR2 in HEK293; 1 μM forskolin, 1 μM LY-341495, 30 min; CISBIO cAMP kit.
T1 construct: expressed in transfected cells; host or cells: HEK293 clonal line
T1 sequence (Q14416 19-872): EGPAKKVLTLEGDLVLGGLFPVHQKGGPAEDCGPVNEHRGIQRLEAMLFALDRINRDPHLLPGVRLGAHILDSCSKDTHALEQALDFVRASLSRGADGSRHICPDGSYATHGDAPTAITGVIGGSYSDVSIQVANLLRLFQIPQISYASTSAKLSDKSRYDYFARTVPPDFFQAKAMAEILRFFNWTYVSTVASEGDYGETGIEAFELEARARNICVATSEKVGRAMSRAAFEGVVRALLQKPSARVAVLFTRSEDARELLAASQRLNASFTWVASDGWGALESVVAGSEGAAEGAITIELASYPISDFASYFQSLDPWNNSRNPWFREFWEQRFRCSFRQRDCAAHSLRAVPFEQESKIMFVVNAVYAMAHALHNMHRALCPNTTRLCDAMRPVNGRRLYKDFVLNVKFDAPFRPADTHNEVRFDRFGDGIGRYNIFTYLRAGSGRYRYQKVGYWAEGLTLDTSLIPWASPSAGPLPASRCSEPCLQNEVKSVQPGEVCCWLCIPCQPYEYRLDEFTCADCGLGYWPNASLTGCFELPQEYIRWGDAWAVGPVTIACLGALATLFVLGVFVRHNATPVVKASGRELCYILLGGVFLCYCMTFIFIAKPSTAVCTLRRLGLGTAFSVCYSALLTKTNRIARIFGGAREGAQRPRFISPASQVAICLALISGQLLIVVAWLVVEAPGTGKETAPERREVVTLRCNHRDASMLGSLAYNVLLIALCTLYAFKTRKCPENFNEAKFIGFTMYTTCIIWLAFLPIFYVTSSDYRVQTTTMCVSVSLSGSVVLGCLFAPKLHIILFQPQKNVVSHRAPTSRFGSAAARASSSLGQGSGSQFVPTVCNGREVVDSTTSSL
Format: cell-based
Protocol: On the day of the assay, media was removed, cells washed with PBS, cells harvested and pelleted by centrifugation. Cell pellets were resuspended in stimulation buffer without forskolin and counted. […] A standard curve was created using a top concentration of cAMP of 1 μM in the stimulation buffer, 1:3 dilutions over 14 points in the absence of cells. […] In house software converted the fluorescence value ratios to units of cAMP concentration, which is then used to calculate % inhibition for each test compound. MGluR2 cAMP Assay Materials and Methods. […] Buffer without forskolin was used as a negative control. Solutions of D2 and cryptate detection reagents from the CISBIO dynamic cAMP kit (62AM4PEJ) were diluted 1:40 in lysis buffer. Lysis buffer consisted of 50 mM Phosphate Buffer pH 7.0, 800 mM Potassium Fluoride, 0.2% BSA, and 1.0% Triton. Assay reaction was terminated by addition of detection reagents in lysis buffer. One hour later, plates were read on a PE Viewlux. Data was extracted, and concentration response curves generated by fitting the data to a standard 4 parameter logistic equation from which EC50 values were determined.

| Compound | EC50 [nM] |
| --- | --- |
| Fc1ccc([C@H]2C[C@H](Oc3ccn4c(CC5CC5)nnc4c3C(F)(F)F)C2)cc1 [Example 96, 3-(Cyclopropylmethyl)-7-((1r,3r)-3-(4-fluorophenyl)cyclobutoxy)-8-(trifluoromethyl)-[1,2,4]triazolo[4,3-a]pyridine] | 0.4 |

Same assay, conditions: clonally expressed human mGluR2 in HEK293; 1 μM forskolin, 1 μM LY-341495, 30 min; CISBIO cAMP kit; read-out: EC50 (nM), activity in mGluR2 cAMP assay

| Compound | EC50 [nM] |
| --- | --- |
| COc1cc(F)ccc1[C@H]1C[C@@H]1COc1ccn2c(CC3CC3)nnc2c1C(F)(F)F (racemic) [Example 49, (±)-3-(Cyclopropylmethyl)-7-(((1S,2S)-2-(4-fluoro-2-methoxyphenyl)cyclopropyl)methoxy)-8-(trifluoromethyl)-[1,2,4]triazolo[4,3-a]pyridine] | 0.4 |
| N#C[C@]1(c2cccc(F)c2)C[C@H](Oc2ccn3c(CC4CC4)nnc3c2C(F)(F)F)C1 [Example 46, (1s,3s)-3-(3-(Cyclopropylmethyl)-8-(trifluoromethyl)-[1,2,4]triazolo[4,3-a]pyridin-7-yloxy)-1-(3-fluorophenyl)cyclobutanecarbonitrile] | 0.5 |
| CO[C@]1(c2ccc(F)cc2)CC[C@H](Oc2ccn3c(CC(F)(F)F)nnc3c2C(F)(F)F)CC1 [Example 97, 7-((1s,4s)-4-(4-Fluorophenyl)-4-methoxycyclohexyloxy)-3-(2,2,2-trifluoroethyl)-8-(trifluoromethyl)-[1,2,4]triazolo[4,3-a]pyridine] | 1 |
| CC(C)(COc1ccn2c(CC3CC3)nnc2c1C(F)(F)F)c1ccc(Cl)cc1 [Example 2, 7-(2-(4-Chlorophenyl)-2-methylpropoxy)-3-(cyclopropylmethyl)-8-(trifluoromethyl)-[1,2,4]triazolo[4,3-a]pyridine] | 5.5 |
| O[C@]1(c2ccc(F)cc2)CC[C@H](Oc2ccn3c(CC4CC4)nnc3c2C(F)(F)F)CC1 [Example 95, (1s,4s)-4-(3-(Cyclopropylmethyl)-8-(trifluoromethyl)-[1,2,4]triazolo[4,3-a]pyridin-7-yloxy)-1-(4-fluorophenyl)cyclohexanol, TFA salt] | 1 |
| Clc1ccc(COc2ccn3c(CC4CC4)nnc3c2Cl)cc1Cl [Example 69, 8-Chloro-3-(cyclopropylmethyl)-7-(3,4-dichlorobenzyloxy)-[1,2,4]triazolo[4,3-a]pyridine] | 32 |
| CC(C)(COc1ccn2c(CC3CC3)nnc2c1C(F)(F)F)c1ccc(F)cc1 [Example 6, 3-(Cyclopropylmethyl)-7-(2-(4-fluorophenyl)-2-methylpropoxy)-8-(trifluoromethyl)-[1,2,4]triazolo[4,3-a]pyridine] | 11 |
| FC(F)(F)Oc1ccc(Cl)cc1COc1ccn2c(CC3CC3)nnc2c1Cl [Example 73, 8-Chloro-7-(5-chloro-2-(trifluoromethoxy)benzyloxy)-3-(cyclopropylmethyl)-[1,2,4]triazolo[4,3-a]pyridine] | 22 |
| FC(F)(F)c1c(OC[C@H]2C[C@@H]2c2ccc(Cl)cc2)ccn2c(CC3CC3)nnc12 [Example 34, 7-(((1S,2S)-2-(4-Chlorophenyl)cyclopropyl)methoxy)-3-(cyclopropylmethyl)-8-(trifluoromethyl)-[1,2,4]triazolo[4,3-a]pyridine] | 1.6 |
| FC(F)(F)c1c(OC[C@@H]2C[C@H]2c2ccc(Cl)cc2)ccn2c(CC3CC3)nnc12 [Example 33, 7-(((1R,2R)-2-(4-Chlorophenyl)cyclopropyl)methoxy)-3-(cyclopropylmethyl)-8-(trifluoromethyl)-[1,2,4]triazolo[4,3-a]pyridine] | 4 |
| Fc1cccc(F)c1CCOc1ccn2c(CC3CC3)nnc2c1C(F)(F)F [Example 81, 3-(Cyclopropylmethyl)-7-(2,6-difluorophenethoxy)-8-(trifluoromethyl)-[1,2,4]triazolo[4,3-a]pyridine] | 1.5 |
| CO[C@]1(c2ccc(F)cc2)CC[C@H](Oc2ccn3c(C4CC4)nnc3c2C(F)(F)F)CC1 [Example 92, 3-Cyclopropyl-7-((1s,4s)-4-(4-fluorophenyl)-4-methoxycyclohexyloxy)-8-(trifluoromethyl)-[1,2,4]triazolo[4,3-a]pyridine] | 35 |
| C[C@H](COc1ccn2c(CC3CC3)nnc2c1C(F)(F)F)c1c(F)cccc1Cl (single isomer, unassigned) [Example 10] | 0.8 |
| CC(Oc1ccn2c(CC3CC3)nnc2c1Cl)c1ccc(F)cc1 (stereo not drawn) [Example 59, 8-Chloro-3-(cyclopropylmethyl)-7-(1-(4-fluorophenyl)ethoxy)-[1,2,4]triazolo[4,3-a]pyridine] | 530 |
| COc1ccccc1[C@H]1C[C@@H]1COc1ccn2c(CC3CC3)nnc2c1C(F)(F)F (racemic) [Example 37, (±)-3-(Cyclopropylmethyl)-7-(((1S,2S)-2-(2-methoxyphenyl)cyclopropyl)methoxy)-8-(trifluoromethyl)-[1,2,4]triazolo[4,3-a]pyridine] | 0.2 |
| CC(C)(COc1ccn2c(CC(F)(F)F)nnc2c1C(F)(F)F)Oc1ccc(F)cc1 [Example 11, 7-(2-(4-Fluorophenoxy)-2-methylpropoxy)-3-(2,2,2-trifluoroethyl)-8-(trifluoromethyl)-[1,2,4]triazolo[4,3-a]pyridine] | 18 |

| Compound | EC50 [nM] |
| --- | --- |
| N#Cc1c(OC[C@H]2C[C@@H]2c2ccc(F)cc2)ccn2c(CC3CC3)nnc12 [Example 3, 3-(Cyclopropylmethyl)-7-(((1S,2S)-2-(4-fluorophenyl)cyclopropyl)methoxy)-[1,2,4]triazolo[4,3-a]pyridine-8-carbonitrile] | 11 |
| CC(C#N)(COc1ccn2c(CC3CC3)nnc2c1C(F)(F)F)c1ccc(F)cc1 (racemic) [Example 12, 3-(3-(Cyclopropylmethyl)-8-(trifluoromethyl)-[1,2,4]triazolo[4,3-a]pyridin-7-yloxy)-2-(4-fluorophenyl)-2-methylpropanenitrile, TFA salt] | 130 |
| COc1ccccc1[C@H]1C[C@@H]1COc1ccn2c(CC3CC3)nnc2c1C(F)(F)F (single isomer, unassigned) [Example 39] | 0.6 |
| CO[C@@](C)(COc1ccn2c(CC3CC3)nnc2c1C(F)(F)F)c1ccc(F)cc1 (single isomer, unassigned) [Example 24] | 36 |
| C[C@@H](COc1ccn2c(CC3CC3)nnc2c1C(F)(F)F)c1c(F)cccc1Cl (single isomer, unassigned) [Example 9] | 0.8 |
| Clc1cc(COc2ccn3c(CC4CC4)nnc3c2Cl)nc(Cl)n1 [Example 82, 8-Chloro-3-(cyclopropylmethyl)-7-((2,6-dichloropyrimidin-4-yl)methoxy)-[1,2,4]triazolo[4,3-a]pyridine] | 20 |
| Fc1ccc(C2(COc3ccn4c(CC5CC5)nnc4c3C(F)(F)F)CC2)cc1 [Example 30, 3-(Cyclopropylmethyl)-7-((1-(4-fluorophenyl)cyclopropyl)methoxy)-8-(trifluoromethyl)-[1,2,4]triazolo[4,3-a]pyridine] | 16 |
| N#C[C@]1(c2ccc(F)cc2)CC[C@H](Oc2ccn3c(CC4CC4)nnc3c2C(F)(F)F)CC1 [Example 17, (1s,4s)-4-(3-(Cyclopropylmethyl)-8-(trifluoromethyl)-[1,2,4]triazolo[4,3-a]pyridin-7-yloxy)-1-(4-fluorophenyl)cyclohexanecarbonitrile] | 1.4 |
| CC(C)(COc1ccn2c(CC(F)(F)F)nnc2c1C(F)(F)F)c1ccc(Cl)cc1 [Example 7, 7-(2-(4-Chlorophenyl)-2-methylpropoxy)-3-(2,2,2-trifluoroethyl)-8-(trifluoromethyl)-[1,2,4]triazolo[4,3-a]pyridine] | 13 |
| COCc1nnc2c(C(F)(F)F)c(OCC(C)(C)Oc3ccc(Cl)cc3)ccn12 [Example 23, 7-(2-(4-Chlorophenoxy)-2-methylpropoxy)-3-(methoxymethyl)-8-(trifluoromethyl)-[1,2,4]triazolo[4,3-a]pyridine, TFA salt] | 120 |
| C[C@@](C#N)(COc1ccn2c(CC3CC3)nnc2c1C(F)(F)F)c1ccc(F)cc1 (single isomer, unassigned) [Example 14] | 230 |
| Fc1ccc(C2(COc3ccn4c(CC5CC5)nnc4c3C(F)(F)F)CC2)c(F)c1 [Example 51, 3-(Cyclopropylmethyl)-7-((1-(2,4-difluorophenyl)cyclopropyl)methoxy)-8-(trifluoromethyl)-[1,2,4]triazolo[4,3-a]pyridine] | 43 |
| Fc1ccc([C@@H]2C[C@H]2COc2ccn3c(CC4CC4)nnc3c2C(F)(F)F)cc1 (single isomer, unassigned) [Example 79] | 1.1 |
| Clc1c(OCCc2ccccc2)ccn2c(CC3CC3)nnc12 [Example 64, 8-Chloro-3-(cyclopropylmethyl)-7-phenethoxy-[1,2,4]triazolo[4,3-a]pyridine] | 32 |
| COC(C)(COc1ccn2c(CC3CC3)nnc2c1C(F)(F)F)c1ccc(F)cc1 (racemic) [Example 21, 3-(Cyclopropylmethyl)-7-(2-(4-fluorophenyl)-2-methoxypropoxy)-8-(trifluoromethyl)-[1,2,4]triazolo[4,3-a]pyridine] | 31 |
| COc1cccc(COc2ccn3c(CC4CC4)nnc3c2Cl)c1 [Example 61, 8-Chloro-3-(cyclopropylmethyl)-7-(3-methoxybenzyloxy)-[1,2,4]triazolo[4,3-a]pyridine] | 40 |
